{"source": "patent US6872562B2", "about": "“Herbicide resistant dinitrogen fixing bacteria and method of use” (priority 2001, dated 2005)", "key": {"[1]": {"system": "glyphosate resistant soybean cultivar DK5961RR inoculated with B. japonicum (USDA 110)", "assay": "Seed-imbibed glyphosate: nodulation, growth chamber experiment", "format": "in vivo", "details": "glyphosate concentrations greater than 12 mM", "procedure": "(§1) Pots 15-cm in diameter, with a total volume of 1.3 L were filled with a peat based potting mix that was saturated with a nitrogen-free nutrient solution. Six seeds from a particular glyphosate-concentration seed soak were planted in each pot and 1 ml of B. japonicum (USDA 110) containing approximately 4.24×10^6 cells was applied evenly across the surface and washed into the potting mix with 250 ml of minus N nutrients. Plants were thinned to one per pot after emergence. Day and night temperatures were approximately 30 and 24 C, respectively, and natural illumination was supplemented with 1000 W metal-halide lamps for a day length of 16 hours. […] Root nodules were scanned and images were used to determine nodule number and size as influenced by glyphosate treatment. The […] was repeated in a controlled environmental growth chamber with six replications. Growth chamber temperature was a constant 25 C and light and dark periods were 16 and 8 hours, respectively. Plants were harvested at 15 days after planting and sectioned as previously described (Example 1)."}, "[2]": {"system": "TV5866RR soybean inoculated with B. japonicum (USDA 110)", "assay": "Growth cabinet time course of nodule acetylene reduction activity (ARA)", "format": "in vivo, soybean (Glycine max)", "details": "1.68 kg ha^−1 at 5, 12, and 19 DAE", "source_text": "The time course of nodule activity from 14 to 28 DAE was followed in a series of four runs of an experiment in a growth cabinet. Soybean seeds were sown in N-free potting media in pots constructed of 15-cm diameter polyvinyl chloride pipe. These pipes allow nondestructive measurement of nodule activity by the acetylene reduction assay as described by Purcell et al. (1997). Seeds were inoculated with B. japonicum (USDA 110), and pots were supplied with N-free nutrients. […] Acetylene reduction activity (ARA) was measured at 14, 21, and 28 DAE by passing a 9:1 air to acetylene mixture through the pots at 0.5 L min^−1. After 8 min., 1-mL aliquots of the effluent gas stream were collected from each pot and analyzed for ethylene by gas chromatography. Nitrogenase activity for glyphosate-treated and control plants was similar at 14 DAE, except for Run 4 when ARA was lower for glyphosate-treated plants (Table 5). ARA was 12 to 20% lower for glyphosate-treated plants at 21 DAE in three of the four runs. By 28 DAE, ARA was lower in glyphosate-treated plants only in Run 2 and was greater than control plants in Run 1."}, "[3]": {"system": "GR soybean cultivars A5901RR and DK5961RR", "assay": "Field experiments at Keiser and Fayetteville, Arkansas: biomass and seed yield", "format": "in vivo, soybean (Glycine max)", "procedure": "Field experiments were conducted at Fayetteville and Keiser, Ark., to evaluate the response of GR soybean cultivars to foliar applications of glyphosate under field conditions susceptible to drought stress. […] Delannay et al. (1995) reported three experiments out of 58 in which yields were less than 1500 kg ha^−1, but there was no indication as to the cause of these low yields. The Fayetteville experiment was conducted on a Pembroke silt loam (Ultic Paleudalfs) on 15-cm-high beds spaced 1 m apart. Water was applied as needed until mid-reproductive development (R5) with sprinkle irrigation. At Keiser the soil was a Sharkey silty-clay (Vertic Haplaquepts), and soybean was planted on a flat seedbed with rows 0.96 m apart. Irrigation was applied with an overhead, lateral-move system.\nExperiments at both locations were a factorial of two cultivars and five herbicide treatments in a randomized complete block design with four replications. Plots were four rows wide by 9 m long. […] The seeding rate was 370,000 ha^−1 at both locations.\nHerbicides were applied as a broadcast treatment, sprayed over-the-top of the canopy with a CO2-powered backpack sprayer in a volume of 93 L ha^−1. […] All herbicide treatments contained appropriate surfactants. Plants were at V1, V4, and V9 development stages at 7, 21, and 35 DAE application timings, respectively, at both locations. R2 applications were made at 45 and 48 DAE at Fayetteville and Keiser, respectively. Plots were maintained weed free by hand weeding as needed. Four replications of the non-nodulating isoline of the cultivar ‘Lee’ were included at each location as an indicator of plant-available soil nitrogen.\nSamples were prepared and analyzed for total nitrogen as previously described. Seed yield was determined by harvesting 4.5 m from each of the center two rows. Average seed mass was determined from a random sample of 100 seeds. Biomass data were evaluated by comparing the means±standard errors between herbicide treatments within a cultivar and sample date. […]"}, "[4]": {"system": "glyphosate resistant soybean cultivar DK5961RR inoculated with B. japonicum (USDA 110)", "assay": "Seed-imbibed glyphosate: nodulation, greenhouse experiment", "format": "in vivo", "procedure": "as §1"}, "[5]": {"system": "B. japonicum (strain USDA 110)", "assay": "B. japonicum growth in culture with increasing glyphosate (Example 12)", "format": "cell-based", "details": "Bradyrhizobium japonicum, 168 h; read-out: Growth inhibition relative to the control", "procedure": "0.1, 1, 3, and 5 mM. […] At concentrations as low as 0.01 mM, B. japonicum growth was inhibited 18% relative to the control (FIG. 4). At a concentration of 0.1 mM, growth was inhibited approximately 40% relative to the control."}}}
{"compound": "O=C(O)CNCP(=O)(O)O", "note": "[glyphosate, N-(phosphonomethyl)glycine]", "values": [{"measurement": "Nodule number", "setting": "[1]", "result": "progressively decreased"}, {"measurement": "Acetylene reduction activity (mean ± SE)", "setting": "[2]; Run 1, 14 DAE", "result": "33 ± 2", "unit": "μmol C2H4 plant^−1 h^−1"}, {"measurement": "Acetylene reduction activity (mean ± SE)", "setting": "[2]; Run 1, 21 DAE", "result": "45 ± 3", "unit": "μmol C2H4 plant^−1 h^−1"}, {"measurement": "Acetylene reduction activity (mean ± SE)", "setting": "[2]; Run 1, 28 DAE", "result": "76 ± 7", "unit": "μmol C2H4 plant^−1 h^−1"}, {"measurement": "Acetylene reduction activity (mean ± SE)", "setting": "[2]; Run 2, 14 DAE", "result": "23 ± 3", "unit": "μmol C2H4 plant^−1 h^−1"}, {"measurement": "Acetylene reduction activity (mean ± SE)", "setting": "[2]; Run 2, 21 DAE", "result": "53 ± 6", "unit": "μmol C2H4 plant^−1 h^−1"}, {"measurement": "Acetylene reduction activity (mean ± SE)", "setting": "[2]; Run 2, 28 DAE", "result": "70 ± 4", "unit": "μmol C2H4 plant^−1 h^−1"}, {"measurement": "Acetylene reduction activity (mean ± SE)", "setting": "[2]; Run 3, 14 DAE", "result": "57 ± 13", "unit": "μmol C2H4 plant^−1 h^−1"}, {"measurement": "Acetylene reduction activity (mean ± SE)", "setting": "[2]; Run 3, 21 DAE", "result": "75 ± 9", "unit": "μmol C2H4 plant^−1 h^−1"}, {"measurement": "Acetylene reduction activity (mean ± SE)", "setting": "[2]; Run 3, 28 DAE", "result": "115 ± 13", "unit": "μmol C2H4 plant^−1 h^−1"}, {"measurement": "Acetylene reduction activity (mean ± SE)", "setting": "[2]; Run 4, 14 DAE", "result": "28 ± 4", "unit": "μmol C2H4 plant^−1 h^−1"}, {"measurement": "Acetylene reduction activity (mean ± SE)", "setting": "[2]; Run 4, 21 DAE", "result": "56 ± 3", "unit": "μmol C2H4 plant^−1 h^−1"}, {"measurement": "Acetylene reduction activity (mean ± SE)", "setting": "[2]; Run 4, 28 DAE", "result": "107 ± 14", "unit": "μmol C2H4 plant^−1 h^−1"}, {"measurement": "Soybean seed yield", "setting": "[3]; Fayetteville, A5901RR, glyphosate 1: 7 & 21 DAE", "result": 2053, "unit": "a kg ha^−1"}, {"measurement": "Soybean seed yield", "setting": "[3]; Fayetteville, A5901RR, glyphosate 2: 7 & 49 DAE", "result": 2057, "unit": "a kg ha^−1"}, {"measurement": "Soybean seed yield", "setting": "[3]; Fayetteville, A5901RR, glyphosate 3: 21 & 35 DAE", "result": 1999, "unit": "a kg ha^−1"}, {"measurement": "Soybean seed yield", "setting": "[3]; Fayetteville, DK5961RR, glyphosate 1: 7 & 21 DAE", "result": 1854, "unit": "a kg ha^−1"}, {"measurement": "Soybean seed yield", "setting": "[3]; Fayetteville, DK5961RR, glyphosate 2: 7 & 49 DAE", "result": 1798, "unit": "a kg ha^−1"}, {"measurement": "Soybean seed yield", "setting": "[3]; Fayetteville, DK5961RR, glyphosate 3: 21 & 35 DAE", "result": 1992, "unit": "a kg ha^−1"}, {"measurement": "Biomass vs untreated check", "setting": "[3]; Keiser, A5901RR, 92 DAE", "result": "significantly less biomass"}, {"measurement": "Soybean seed yield", "setting": "[3]; Keiser, A5901RR, glyphosate 1: 1.68 kg ha^−1 at 7 & 21 DAE", "result": 974, "unit": "b kg ha^−1"}, {"measurement": "Soybean seed yield", "setting": "[3]; Keiser, A5901RR, glyphosate 2: 1.68 kg ha^−1 at 7 & 49 DAE", "result": 1138, "unit": "ab kg ha^−1"}, {"measurement": "Soybean seed yield", "setting": "[3]; Keiser, A5901RR, glyphosate 3: 1.68 kg ha^−1 at 21 & 35 DAE", "result": 1050, "unit": "ab kg ha^−1"}, {"measurement": "Yield vs check", "setting": "[3]; Keiser, A5901RR, glyphosate at 7 followed by 21 DAE", "result": "significantly lower yield"}, {"measurement": "Biomass vs other treatments", "setting": "[3]; Keiser, DK5961RR, 92 DAE, glyphosate at 7 followed by 21 DAE or at 7 followed by 49 DAE", "result": "tended to be lower"}, {"measurement": "Soybean seed yield", "setting": "[3]; Keiser, DK5961RR, glyphosate 1: 7 & 21 DAE", "result": 1197, "unit": "ab kg ha^−1"}, {"measurement": "Soybean seed yield", "setting": "[3]; Keiser, DK5961RR, glyphosate 2: 7 & 49 DAE", "result": 989, "unit": "b kg ha^−1"}, {"measurement": "Soybean seed yield", "setting": "[3]; Keiser, DK5961RR, glyphosate 3: 21 & 35 DAE", "result": 1291, "unit": "a kg ha^−1"}, {"measurement": "Yield decrease", "setting": "[3]; Keiser, DK5961RR, glyphosate at 7 followed by 21 DAE", "result": 24, "unit": "%"}, {"measurement": "Yield lower than untreated check", "setting": "[3]; Keiser, DK5961RR, glyphosate at 7 followed by 49 DAE", "result": 8, "unit": "%"}, {"measurement": "Seed yields vs untreated check", "setting": "[3]; Keiser, DK5961RR, other glyphosate and standard herbicide treatments", "result": "numerically equal to the untreated check"}, {"measurement": "Reduction in nodule number compared to the control", "setting": "[4]; 3.1 mM glyphosate seed treatment, 10 DAP", "result": "~30", "unit": "%"}, {"measurement": "Nodule number", "setting": "[4]; glyphosate concentrations greater than 3.1 mM", "result": "increased to values similar to that of plants from the control treatment"}, {"measurement": "Average diameter of individual nodules", "setting": "[4]; increasing glyphosate concentrations, 17 DAP", "result": "tended to decrease"}, {"measurement": "inhibition at 10 µM", "setting": "[5]", "result": 18, "unit": "%"}, {"measurement": "inhibition at 100 µM", "setting": "[5]", "result": "~40", "unit": "%"}]}
